From patent US20050267073A1, “Triheterocyclic compounds, compositions, and methods for treating cancer or viral diseases” (priority 2004, published 2005)
Converted amounts (≈) assume the structure as drawn. Where a name gives a salt, the structure may show the parent alone. Read-outs that look alike come from different tables or passages of the source.

Columns and labels:
[1] = type: in vivo, CB17 SCID/SCID mice
Experimental: Treatments started on day fourteen after C33A cells transplantation. […]. The negative control group was treated with vehicle alone. […].
Observation continued for 40 days after initial tumor implantation.

[2] = Shelf stability (precipitation) of formulation; type: physicochemical; conditions: 0.6 mg/mL in 9.6% polyethylene glycol 300, 0.4% polysorbate 20 and 5% dextrose
Experimental: (§4) To determine whether a compound is soluble in a solution, the solution was filtered on 0.2 μM polytetrafluoroethylene filters (Whatman Inc. Clifton, N.J., USA) and the compound concentration in the filtrate was measured by LC/MS and compared to the expected concentration.

[3] = system: human prostatic adenocarcinoma cancer PC3 cells; experiment: Growth of PC3 prostatic tumors in SCID mice; type: in vivo; conditions: 5 consecutive intravenous injections; Compound 1 Mesylate Salt 4.84 μMoles/Kg; Compound 66 4.84 or 14.51 μMoles/Kg; FIG. 6
Experimental: The human prostatic adenocarcinoma cancer PC3 cells were purchased from the American Type Culture Collection (ATCC). These cells were confirmed to be free of mycoplasma infection. Cells were maintained in the Roswell Park Memorial Institute (RPMI), supplemented with 10% inactivated fetal bovine serum and 1% penicillin-streptomycin-L-Glutamine, under 5% carbon dioxide (CO2) at 37° C. For prostatic-tumor induction, cells were grown lower than 70% confluence in complete medium and then collected with trypsin (Bio Whittaker, Rockland, Me., USA). Cells were then centrifuged and washed 2 times in phosphate buffer solution (PBS) and resuspended in PBS at 1.5×10^6 cells/0.1 mL. PC3 cells were then transplanted subcutaneously into the flank of SCID mice (Charles River Laboratories, Wilmington, Mass., USA), as a suspension of tumor cells (1.5×10^6 cells in 100 μL PBS), under a laminar airflow hood. Eleven (11) days later, the size of each tumor was measured. […] Relative tumor size and volume was calculated as follows: length (cm)×[width (cm)]^2/2. […]

[4] = system: C33A cervical carcinoma cells; experiment: cells; type: cell-based; conditions: Homo sapiens, C-33-A, read-out: IC50 (μM) C33A, Effect on Cancer Cells Viability
Source text: (§1) […]. […] […]. The total dimethyl sulfoxide on the cells was 1%. […] […].
(§2) As depicted in Table 4, these compounds were efficient in decreasing cellular ATP levels in HI 299 and C33A cancer cell lines. Nevertheless, these compounds are believed to have utility in the in vivo methods of the invention, i.e., treatment and prevention of cancer and viral infections, respectively. It should be noted that, although this cell-based assay is believed to be indicative of anti-oncogenic activity in vivo, it is not the only useful assay for evaluating the anti-oncogenic activity of Triheterocyclic Compounds of the invention. In addition, the anti-viral and other biological activity of compounds of the invention can be determined and evaluated in other assay systems known to the skilled artisan.

[5] = system: H1299 human non-small cell lung cancer cells; experiment: Cell viability by cellular ATP levels (ViaLight), H1299 cells; type: cell-based; conditions: Homo sapiens
Source text: as §1, §2

[6] = system: calf intestinal alkaline phosphatase; experiment: Conversion of phosphate pro-drug by calf intestinal alkaline phosphatase in vitro; type: in vitro ADME; conditions: 15 μM, 0.02 U/100 μL enzyme, pH 7.4; 30, 60, 120 minutes; FIG. 5
Experimental: (§3) The conversion into biologically active drug of phosphate pro-drugs by calf intestinal alkaline phosphatase and human placental alkaline phosphatase was measured in vitro using purified enzymes. Purified calf intestinal alkaline phosphatase (Roche Diagnostic Inc. Laval, Quebec, Canada) or human placental alkaline phosphatase (Sigma-Aldrich Canada Ltd. Oakville, Ontario, Canada) was added at a concentration of 0.02 U/100 μL to a solution containing 15 μM of Compound 66, 20 mM Tris-HCl, pH 7.4 and 0.9% NaCl. The solutions were incubated for 30, 60 or 120 minutes. A solution containing 15 μM of Compound 66, 20 mM Tris-HCl, pH 7.4 and 0.9% NaCl was used as a reference (time=0 minutes). To each solution, an equal volume (100 μL) of ice-cold acetonitrile was added, and then the mixture was vortexed and transferred to glass vials. A standard concentration curve of the pro-drug and the drug was prepared in 10 mM Tris-HCl, pH 7.4, 0.45% NaCl and 50% acetonitrile. All samples were immediately analyzed by LC/MS.

[7] = target: T1, human placental alkaline phosphatase (Homo sapiens, UniProt P05187); experiment: Conversion of phosphate pro-drug by human placental alkaline phosphatase in vitro; type: in vitro ADME; conditions: 15 μM, 0.02 U/100 μL enzyme, pH 7.4; 30, 60, 120 minutes; FIG. 4
T1 construct: purchased Sigma-Aldrich Canada Ltd
Experimental: as §3

physchem = conditions: water
Experimental: as §4

[8] = C33A, cellular ATP levels as described in Example 2
[9] = NCI-H1299, H1299, cellular ATP levels as described in Example 2, read-out: IC50 (μM) H1299, Effect on Cancer Cells Viability

T1 sequence (P05187 23-506): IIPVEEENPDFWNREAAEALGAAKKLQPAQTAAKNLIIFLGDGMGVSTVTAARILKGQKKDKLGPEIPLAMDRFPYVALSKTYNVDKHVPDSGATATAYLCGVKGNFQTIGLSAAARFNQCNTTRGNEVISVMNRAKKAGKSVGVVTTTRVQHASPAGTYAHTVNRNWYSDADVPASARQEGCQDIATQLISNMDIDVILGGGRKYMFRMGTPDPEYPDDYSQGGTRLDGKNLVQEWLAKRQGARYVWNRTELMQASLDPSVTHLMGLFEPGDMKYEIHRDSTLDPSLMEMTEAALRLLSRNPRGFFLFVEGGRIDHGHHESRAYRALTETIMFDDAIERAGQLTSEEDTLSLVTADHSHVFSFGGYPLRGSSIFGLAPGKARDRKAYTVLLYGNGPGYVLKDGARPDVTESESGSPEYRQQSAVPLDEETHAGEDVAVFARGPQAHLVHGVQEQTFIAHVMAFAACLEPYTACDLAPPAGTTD

Row | SMILES | IC50 [4, 8] | IC50 [5, 9] | further results
1 | N.N.[Cl][Pt][Cl] [cisplatin, reference compound] |  |  | deaths ([1]; cisplatin 4 mg/kg IP, days 29 and 32): Two mice died; weight loss ([1]; day 29, cisplatin 4 mg/kg IP once every 3 days for five times): 28%
2 | COC1=CC(c2cc3ccccc3[nH]2)=N/C1=C\c1[nH]c(C)cc1C [Compound 1 Mesylate Salt] |  |  | precipitation of formulation [2]: no evidence of precipitation 72 hours after its preparation; growth of prostatic tumors in mice [3]: significantly reduce the growth of prostatic tumors
3 | COC1=CC(c2cc3cc(Br)ccc3[nH]2)=N/C1=C\c1[nH]c(C)cc1C [Compound 7, 5-Bromo-2-[5-(3,5-dimethyl-1H-pyrrol-2-ylmethylene)-4-methoxy-5H-pyrrol-2-yl]-1H-indole] | 2.23 µM | 1.73 µM | 
4 | COC1=CC(c2cc3ccccc3n2Cc2ccc(O)cc2)=N/C1=C\c1[nH]c(C)cc1C [Compound 58, 4-{2-(5-(3,5-Dimethyl-1H-pyrrol-2-ylmethylene)-4-methoxy-5H-pyrrol-2-yl]-indol-1-ylmethyl}-phenol] | 1.32 µM | 1.97 µM | 
5 | COc1cccc(COC2=CC(c3cc4ccccc4[nH]3)=N/C2=C\c2[nH]c(C)cc2C)c1 [Compound 51, 2-[5-(3,5-Dimethyl-1H-pyrrol-2-ylmethylene)-4-(3-methoxy-benzyloxy)-5H-pyrrol-2-yl]-1H-indole] | 0.165 µM | 0.202 µM | 
6 | COC1=CC(c2cc3ccccc3[nH]2)=N/C1=C(\C)c1[nH]c(C)cc1C [Compound 47, 2-{5-[1-(3,5-Dimethyl-1H-pyrrol-2-yl)-ethylidene]-4-methoxy-5H-pyrrol-2-yl)-1H-indole] | 8.28 µM | 9.65 µM | 
7 | CCOC(=O)COC1=CC(c2cc3ccccc3[nH]2)=N/C1=C\c1[nH]c(C)cc1C [Compound 53, [2-(3,5-Dimethyl-1H-pyrrol-2-ylmethylene)-5-(1H-indol-2-yl)-2H-pyrrol-3-yloxy]-acetic acid ethyl ester] |  |  | IC50 [4]: 10.2 µM; IC50 ([5]; NCI-H1299, read-out: IC50 (μM) H1299, Effect on Cancer Cells Viability): 10.6 µM
8 | Cc1cc(C)c(/C=C2\N=C(c3cc4ccc(O)cc4[nH]3)C=C2OC(C)C)[nH]1 [Compound 56, 2-[5-(3,5-Dimethyl-1H-pyrrol-2-ylmethylene)-4-isopropoxy-5H-pyrrol-2-yl]-1H-indol-6-ol] | 2.54 µM | 5.96 µM | 
9 | COC1=CC(c2cc3ccccc3[nH]2)=N/C1=C\c1[nH]ccc1OC [Compound 3, 2-[4-Methoxy-5-(3-methoxy-1H-pyrrol-2-ylmethylene)-5H-pyrrol-2-yl]-1H-indole] | 0.52 µM | 0.3 µM | 
10 | COC1=CC(c2cc3ccccc3n2C(=O)CC(C)(C)c2c(C)cccc2OP(=O)(O)O)=N/C1=C/c1[nH]c(C)cc1C [Compound 66] |  |  | conversion of pro-drug into Compound 1 [6]: convert a fraction of the pro-drug; growth of prostatic tumors in mice [3]: significantly reduce the growth of prostatic tumors; conversion of pro-drug into Compound 1 [7]: convert a fraction of the pro-drug; solubility (physchem): 10 mg/mL (≈ 17 mM)
11 | COC1=CC(c2cc3ccccc3n2C(=O)C(C)C)=N/C1=C\c1[nH]c(C)cc1C [Compound 35, 1-{2-[5-(3,5-Dimethyl-1H-pyrrol-2-ylmethylene)-4-methoxy-5H-pyrrol-2-yI]-indol-1-yl}-2-methyl-propan-1-one] | 0.167 µM | 0.197 µM | 
12 | COC1=CC(c2cc3cc(OC)ccc3n2C(=O)OC(C)(C)C)=N/C1=C\c1[nH]c(C)cc1C [Compound 30, 2-[5-(3,5-Dimethyl-1H-pyrrol-2-ylmethylene)-4-methoxy-5H-pyrrol-2-yl]-5-methoxy-indole-1-carboxylic acid tert-butyl ester] | 50 µM | 50 µM | 

Continued, in another order:

Row | IC50 [4, 8] | IC50 [5, 9] | SMILES | further results
13 | 2 µM | 3 µM | COC1=CC(c2cc3ccccc3n2C(=O)OC(C)(C)C)=N/C1=C\c1[nH]c(C)cc1C [Compound 49, 2-[5-(3,5-Dimethyl-1H-pyrrol-2-ylmethylene)-4-methoxy-5H-pyrrol-2-yl]-indole-1-carboxylic acid tert-butyl ester] | 
14 | 0.25 µM | 0.493 µM | CNCc1c(C2=N/C(=C\c3[nH]c(C)cc3C)C(OC)=C2CO)[nH]c2ccccc12 [Compound 10, [5-(3,5-Dimethyl-1H-pyrrol-2-ylmethylene)-4-methoxy-2-(3-methylaminomethyl-1H-indol-2-yl)-5H-pyrrol-3-yl]-methanol] | 
15 | 0.716 µM | 0.887 µM | Cc1cc(C)c(/C=C2\N=C(c3cc4ccc(F)cc4[nH]3)C=C2OC(C)C)[nH]1 [Compound 45, 2-[5-(3,5-Dimethyl-1H-pyrrol-2-ylmethylene)-4-isopropoxy-5H-pyrrol-2-yl]-6-fluoro-1H-indole] | 
16 | 0.145 µM | 0.187 µM | COC1=CC(c2cc3ccccc3n2C(=O)Nc2ccc(OCc3ccccc3)cc2)=N/C1=C\c1[nH]c(C)cc1C [Compound 54, 2-[5-(3,5-Dimethyl-1H-pyrrol-2-ylmethylene)-4-methoxy-5H-pyrrol-2-yl]-indole-1-carboxylic acid (4-benzyloxy-phenyl)-amide] | 
17 | 6.46 µM | 7.19 µM | COC1=CC(c2[nH]c3ccccc3c2C(=O)c2ccc(-c3ccccn3)s2)=N/C1=C\c1[nH]c(C)cc1C [Compound 22, {2-[5-(3,5-Dimethyl-1H-pyrrol-2-ylmethylene)-4-methoxy-5H-pyrrol-2-yl]-1H-indol-3-yl}-(5-pyridin-2-yl-thiophen-2-yl)-methanone] | 
18 | 3.6 µM | 2.95 µM | COC1=CC(c2[nH]c3ccccc3c2C(=O)c2ccsc2)=N/C1=C\c1[nH]c(C)cc1C [Compound 12, {2-[5-(3,5-Dimethyl-1H-pyrrol-2-ylmethylene)-4-methoxy-5H-pyrrol-2-yl]-1H-indol-3-yl}-thiophen-3-yl-methanone] | 
19 | 0.173 µM | 0.173 µM | COC1=CC(c2cc3ccccc3n2C(=O)c2ccc(Br)cc2)=N/C1=C/c1[nH]c(C)cc1C [Compound 55, (4-Bromo-phenyl)-{2-[5-(3,5-dimethyl-1H-pyrrol-2-ylmethylene)-4-methoxy-5H-pyrrol-2-yl]-indol-1-yl}-methanone] | 
20 | 10 µM | 15.3 µM | COC1=CC(c2[nH]c3ccccc3c2C(=O)c2ccoc2)=N/C1=C\c1[nH]c(C)cc1C [Compound 27, {2-[5-(3,5-Dimethyl-1H-pyrrol-2-ylmethylene)-4-methoxy-5H-pyrrol-2-yl]-1H-indol-3-yl}-furan-3-yl-methanone] | 
